Patent US10028992B2, “Methods of treating muscular dystrophy” (BOARD OF REGENTS OF THE NEVADA SYSTEM OF HIGHER EDUCATION …, priority 2012, dated 2018)

Tested on: α7 integrin promoter
Test: muscle cell-based assay: α7βgal+/− myoblasts/myotubes, LacZ reporter, β-galactosidase cleavage of FDG
Parameters: species or system mouse
Details: Myotubes; for Results in a α7+/− β-galactosidase assay, Myotubes, 0.5 uM: compound at 0.5 uM; for Results in a α7+/− β-galactosidase assay, Myotubes, 1 uM: compound at 1 uM; for Results in a α7+/− β-galactosidase assay, Myotubes, 5 uM: compound at 5 uM; for Results in a α7+/− β-galactosidase assay, Myotubes, 10 uM: compound at 10 uM; for Results in a α7+/− β-galactosidase assay, Myotubes, 20 uM: compound at 20 uM; for Results in a α7+/− β-galactosidase assay, Myotubes, 40 uM: compound at 40 uM
How it was run: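 Fluorescein generated from FDG by β-galactosidase reports α7 integrin promoter activity in differentiated myoblasts from α7+/− LacZ knock-in pups. Screening hits then went to dose-response, western blotting and a myostatin counterscreen.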

Question: Which “Results in a α7+/− β-galactosidase assay, Myotubes, 0.5 uM” value (“Results … 0.5 uM” for short) does the source give for `COc1ccc(CCNC(=O)Cn2nnc(C(=O)Nc3ccc(Br)cc3)c2N)cc1OC` [drawing 325] here?
Answer: 0.151

Question: And the “Results in a α7+/− β-galactosidase assay, Myotubes, 1 uM” value (from here on “Results … 1 uM”)?
Answer: −0.08157

Question: What about the “Results in a α7+/− β-galactosidase assay, Myotubes, 5 uM” value (“Results … Myotubes, 5 uM” below) of the same molecule?
Answer: −0.07294

Question: What about the “Results in a α7+/− β-galactosidase assay, Myotubes, 10 uM” value (shortened to “Results … 10 uM”) of the same molecule?
Answer: −0.05869

Question: And the “Results in a α7+/− β-galactosidase assay, Myotubes, 20 uM” value (from here on “Results … 20 uM”)?
Answer: −0.4709

Question: And the “Results in a α7+/− β-galactosidase assay, Myotubes, 40 uM” value (“Results … 40 uM” for short)?
Answer: −0.3389

Question: Which “Results … 0.5 uM” value does the source give for `CC1(C)Cc2c(cnn2-c2cccc(F)c2)C(NC(=O)CCc2cnccn2)C1` (stereo not drawn) [drawing 326] here?
Answer: 0.2586

Question: And the “Results … 1 uM” value?
Answer: 0.1834

Question: And the “Results … Myotubes, 5 uM” value?
Answer: −0.03061

Question: And the “Results … 10 uM” value?
Answer: 0.09511

Question: What about the “Results … 20 uM” value of the same molecule?
Answer: −0.2257

Question: What about the “Results … 40 uM” value of the same molecule?
Answer: −0.2443

Question: Which results are given for `O=C1Nc2ccccc2/C1=C/c1cccnc1` [drawing 327]?
Answer: Results in a α7+/− β-galactosidase assay, Myotubes, 0.5 uM: −0.03985; Results in a α7+/− β-galactosidase assay, Myotubes, 1 uM: 0.1859; Results in a α7+/− β-galactosidase assay, Myotubes, 5 uM: 0.1467; Results in a α7+/− β-galactosidase assay, Myotubes, 10 uM: 0.08556; Results in a α7+/− β-galactosidase assay, Myotubes, 20 uM: −0.2464; Results in a α7+/− β-galactosidase assay, Myotubes, 40 uM: −0.3705

Question: With `CNC(=O)CSc1nnc(-c2ccc3c(c2)OCO3)n1C` [drawing 328] as the molecule, how does the “Results … 0.5 uM” value read?
Answer: 0.08818

Question: And the “Results … 1 uM” value?
Answer: −0.1177

Question: What about the “Results … Myotubes, 5 uM” value of the same molecule?
Answer: 0.04868

Question: And the “Results … 10 uM” value?
Answer: 0.07527

Question: And the “Results … 20 uM” value?
Answer: −0.1599

Question: What about the “Results … 40 uM” value of the same molecule?
Answer: −0.2763

Question: Which results are given for `Cc1ccccc1NC(=O)NCCCN1CCN(C)CC1` [drawing 329]?
Answer: Results in a α7+/− β-galactosidase assay, Myotubes, 0.5 uM: 0.0927; Results in a α7+/− β-galactosidase assay, Myotubes, 1 uM: 0.04605; Results in a α7+/− β-galactosidase assay, Myotubes, 5 uM: −0.02688; Results in a α7+/− β-galactosidase assay, Myotubes, 10 uM: −0.00108; Results in a α7+/− β-galactosidase assay, Myotubes, 20 uM: 0.01494; Results in a α7+/− β-galactosidase assay, Myotubes, 40 uM: −0.02803

Question: For `CC1(C)Cc2c(c(N3CCOCC3)nc3sc(C(=O)Nc4ccccc4)c(N)c23)CO1` [drawing 330], which “Results … 0.5 uM” value is on record?
Answer: 0.2661

Question: What about the “Results … 1 uM” value of the same molecule?
Answer: 0.1201

Question: And the “Results … Myotubes, 5 uM” value?
Answer: −0.3453

Question: And the “Results … 10 uM” value?
Answer: −0.3697

Question: What about the “Results … 20 uM” value of the same molecule?
Answer: 0.0827

Question: And the “Results … 40 uM” value?
Answer: −0.164

Question: Which “Results … 0.5 uM” value does the source give for `COc1ccc(N2CCN(C(=O)c3cc(C)on3)CC2)cc1` [drawing 331] here?
Answer: 0.1218

Question: And the “Results … 1 uM” value?
Answer: 0.07329

Question: What about the “Results … Myotubes, 5 uM” value of the same molecule?
Answer: 0 .416848

Question: What about the “Results … 10 uM” value of the same molecule?
Answer: 0.01619

Question: And the “Results … 20 uM” value?
Answer: −0.09449

Question: And the “Results … 40 uM” value?
Answer: −0.06707

Question: Which “Results … 0.5 uM” value does the source give for `CCOn1c(=O)c(-c2ccccc2)[n+]([O-])c2ccccc21` [drawing 332] here?
Answer: 0.2995

Question: What about the “Results … 1 uM” value of the same molecule?
Answer: 0.2794

Question: What about the “Results … Myotubes, 5 uM” value of the same molecule?
Answer: 0.2514

Question: And the “Results … 10 uM” value?
Answer: 0.005171

Question: And the “Results … 20 uM” value?
Answer: −0.0871

Question: And the “Results … 40 uM” value?
Answer: −0.1572

Question: What does the source list for `O=S(=O)(N/C(=N/C1CCCCC1)c1ccccc1F)c1ccccc1` [drawing 334]?
Answer: Results in a α7+/− β-galactosidase assay, Myotubes, 0.5 uM: 0.1113; Results in a α7+/− β-galactosidase assay, Myotubes, 1 uM: 0.07899; Results in a α7+/− β-galactosidase assay, Myotubes, 5 uM: 0.00127; Results in a α7+/− β-galactosidase assay, Myotubes, 10 uM: 0.03577; Results in a α7+/− β-galactosidase assay, Myotubes, 20 uM: −0.0234; Results in a α7+/− β-galactosidase assay, Myotubes, 40 uM: −0.0349

Question: Which “Results … 0.5 uM” value does the source give for `CCCCNc1nnc(Cc2ccc(Cl)cc2)c(O)n1` [drawing 335] here?
Answer: 0.2647

Question: And the “Results … 1 uM” value?
Answer: 0.1668

Question: And the “Results … Myotubes, 5 uM” value?
Answer: −0.1354

Question: And the “Results … 10 uM” value?
Answer: −0.08652

Question: What about the “Results … 20 uM” value of the same molecule?
Answer: −0.07223

Question: What about the “Results … 40 uM” value of the same molecule?
Answer: −0.1

Question: Which results are given for `CC(C)CN(C(=O)c1cccc(Cl)c1)c1c(N)n(Cc2ccccc2)c(=O)[nH]c1=O` [drawing 336]?
Answer: Results in a α7+/− β-galactosidase assay, Myotubes, 0.5 uM: 0.198; Results in a α7+/− β-galactosidase assay, Myotubes, 1 uM: 0.2672; Results in a α7+/− β-galactosidase assay, Myotubes, 5 uM: −0.02107; Results in a α7+/− β-galactosidase assay, Myotubes, 10 uM: 0.07176; Results in a α7+/− β-galactosidase assay, Myotubes, 20 uM: −0.1352; Results in a α7+/− β-galactosidase assay, Myotubes, 40 uM: −0.2545

Question: With `Cc1nc(O)nc(O)c1S(=O)(=O)Nc1ccc(F)cc1Cl` [drawing 337] as the molecule, how does the “Results … 0.5 uM” value read?
Answer: 0.2345

Question: And the “Results … 1 uM” value?
Answer: 0.05045

Question: What about the “Results … Myotubes, 5 uM” value of the same molecule?
Answer: 0.06886

Question: What about the “Results … 10 uM” value of the same molecule?
Answer: 0.09509

Question: What about the “Results … 20 uM” value of the same molecule?
Answer: −0.05815

Question: And the “Results … 40 uM” value?
Answer: −0.1517

Question: Which results are given for `Cc1nnc(-c2ccc(N3CCOCC3)c([N+](=O)[O-])c2)o1` [drawing 338]?
Answer: Results in a α7+/− β-galactosidase assay, Myotubes, 0.5 uM: 0.0728; Results in a α7+/− β-galactosidase assay, Myotubes, 1 uM: 0.1596; Results in a α7+/− β-galactosidase assay, Myotubes, 5 uM: −0.09085; Results in a α7+/− β-galactosidase assay, Myotubes, 10 uM: −0.1238; Results in a α7+/− β-galactosidase assay, Myotubes, 20 uM: 0.04847; Results in a α7+/− β-galactosidase assay, Myotubes, 40 uM: −0.1846

Question: What does the source list for `Cc1cc(C)cc(OCC(=O)N/N=C/c2ccccn2)c1` [drawing 339]?
Answer: Results in a α7+/− β-galactosidase assay, Myotubes, 0.5 uM: 0.02382; Results in a α7+/− β-galactosidase assay, Myotubes, 1 uM: 0.1393; Results in a α7+/− β-galactosidase assay, Myotubes, 5 uM: 0.05474; Results in a α7+/− β-galactosidase assay, Myotubes, 10 uM: −0.09985; Results in a α7+/− β-galactosidase assay, Myotubes, 20 uM: 0.0109; Results in a α7+/− β-galactosidase assay, Myotubes, 40 uM: 0.02169

Question: What does the source list for `O=C1Nc2ccccc2/C1=C/c1c[nH]c(-c2ccccc2)n1` [drawing 340]?
Answer: Results in a α7+/− β-galactosidase assay, Myotubes, 0.5 uM: 0.05652; Results in a α7+/− β-galactosidase assay, Myotubes, 1 uM: 0.1643; Results in a α7+/− β-galactosidase assay, Myotubes, 5 uM: 0.09489; Results in a α7+/− β-galactosidase assay, Myotubes, 10 uM: −0.07868; Results in a α7+/− β-galactosidase assay, Myotubes, 20 uM: −0.03697; Results in a α7+/− β-galactosidase assay, Myotubes, 40 uM: −0.06801
